One experiment deals with HLA A6802 (Homo sapiens, UniProt P04439, A269V/D140Y/D185E/E176V/E277Q/E87N/F33Y/G231S/I121R/I166T/I218V/L180W/L300P/L318F/N151K/P208A/P217A/Q86R/R138H/R169H/S129P/T345S/V36M). Kind of experiment: HLA class I competition binding assay using soluble HLA.
A further experiment concerns the target HLA A0202 (Homo sapiens, UniProt P04439, D140Y/D185E/D98H/E176V/E277Q/G131W/G231S/I119L/I121R/I166T/I218V/L180W/L300P/L318F/N151K/N90K/P208A/P217A/Q67R/Q86G/Q94H/R138H/R169H/T345S). The experiment is described as above.
The target of the next experiment is HLA A0206 (Homo sapiens, UniProt P04439, D140Y/D185E/D98H/E176V/E277Q/F33Y/G131W/G231S/I119V/I121R/I166T/I218V/L300P/L318F/N151K/N90K/P208A/P217A/Q86G/Q94H/R138H/R169H/T345S). The experiment is described as above.
The target of another experiment is HLA A0203 (Homo sapiens, UniProt P04439, A173T/D140Y/D185E/D98H/E277Q/G131W/G231S/I119V/I121R/I166T/I218V/L180W/L300P/L318F/N151K/N90K/P208A/P217A/Q86G/Q94H/R138H/R169H/T345S). The description is as above.
The target of another experiment is DRB1*0901 (Homo sapiens, UniProt P01903+P01911, A100R/A103E/D57H/D86V/F55Y/F60I/F76Y/I96F/K127E/L162R/M171V/P40D/Q125H/Q99R/R33Q/R42F/S133A/S66N/T210M/V115G/W38K/Y107V/Y59G/Y89S). Kind of experiment: biochemical.
For the next experiment, the target named is HLA A0201 (Homo sapiens, UniProt P04439, D140Y/D185E/D98H/E176V/E277Q/G131W/G231S/I119V/I121R/I166T/I218V/L300P/L318F/N151K/N90K/P208A/P217A/Q86G/Q94H/R138H/R169H/T345S). Kind of experiment: HLA class I competition binding assay using soluble HLA.
For a further experiment, the target named is DRB1*0802 (DR8w2) (Homo sapiens, UniProt P01903+P01911, A100R/A103L/A169T/F76Y/H45Y/I96F/K41T/L162R/M171V/P40S/Q125H/Q178H/Q39Y/Q99D/R218S/R42G/S66Y/V115G/W38E). Kind of experiment: biochemical.
In a further experiment the target is DRB1*1101 (DR5) (Homo sapiens, UniProt P01903+P01911, A100R/A169T/A87E/I96F/K41T/L162R/M171V/P40S/Q125H/Q178H/Q39Y/Q99D/R42S/S66Y/T262R/V115G/W38E). In words: biochemical.
Another experiment concerns the target DRB5*0101 (DR2w2beta-2) (Homo sapiens, UniProt P01903+Q30154). Kind of experiment: biochemical.
In another experiment the target is HLA A0101 (Homo sapiens, UniProt P04439, A114D/A174V/A182V/D101N/D185E/E176A/E190D/L180R/Q94H/R68K/S129P/T187R/V100A/V91M/W191G). Kind of experiment: HLA class I competition binding assay using soluble HLA.
For another experiment, the target named is DRB1*0701 (DR7) (Homo sapiens, UniProt P01903+P01911, A100R/A102G/A103Q/D57E/D86V/E43K/F76Y/K127E/L162R/M171V/P40G/Q125H/Q99D/R33Q/R42Y/R54Q/S133A/S66F/T210M/V115G/Y107V/Y59L/Y89S). Kind of experiment: biochemical.

Where no end group is shown, it is not given here. Some results are limits rather than exact numbers.

For YQFAFKDLCV [compound 76], the IC50 on HLA A6802 came out at 3.7 µM; at HLA A0202, 0.0013 µM; at HLA A0206 it was 0.01 µM; on HLA A0203 it was 0.0042 µM.
With YVVWDSIYYI [compound 73], the figures for the IC50 at HLA A6802, on HLA A0206 and on HLA A0203 were 0.03 µM, 0.02 µM and 0.248 µM, respectively.
Regarding `CC[C@H](C)[C@H](NC(=O)CNC(=O)[C@@H](NC(=O)[C@H](CCCCN)NC(=O)[C@H](Cc1ccc(O)cc1)NC(=O)[C@H](Cc1c[nH]c2ccccc12)NC(=O)[C@H](Cc1ccc(O)cc1)NC(=O)[C@@H](N)CC(C)C)[C@@H](C)O)C(=O)N[C@@H](CO)C(=O)N[C@@H](CC(N)=O)C(=O)N[C@H](C(=O)N[C@@H](CO)C(=O)N[C@@H](CCC(=O)O)C(=O)N[C@H](C(=O)N[C@@H](Cc1ccc(O)cc1)C(=O)O)C(C)C)[C@@H](C)CC` [compound 89], on DRB1*0901, half-maximal inhibition (IC50) was put at 0.09 µM.
As for TVYVFCFLL [compound 29], the IC50 on HLA A0202 was 0.587 µM; at HLA A0206, 0.026 µM; at HLA A0203, 0.769 µM; on HLA A0201, 0.175 µM.
As to SLVFLLCFSV [compound 74], the IC50 on HLA A6802 is 0.02 µM; at HLA A0201, 0.0085 µM.
Take `CC[C@H](C)[C@H](N)C(=O)N[C@@H](CCCNC(=N)N)C(=O)N[C@H](C(=O)N[C@@H](CC(C)C)C(=O)N[C@@H](CCC(=O)O)C(=O)N[C@@H](CC(=O)O)C(=O)N[C@@H](CC(C)C)C(=O)N[C@@H](CC(C)C)C(=O)N[C@@H](CCSC)C(=O)NCC(=O)N[C@H](C(=O)N[C@@H](CC(C)C)C(=O)NCC(=O)N[C@H](C(=O)N[C@H](C(=O)O)C(C)C)[C@@H](C)CC)[C@@H](C)O)[C@@H](C)O` [compound 97]: the IC50 at DRB1*0802 (DR8w2), against DRB1*1101 (DR5), on DRB5*0101 (DR2w2beta-2) and at DRB1*0901 was > 20 µM in each case.
Regarding ISDYRHYCY [compound 5], on HLA A0101, the IC50 was found to be 0.01 µM.
For the compound TLYAHIQCL [compound 72], on HLA A0201, the IC50 was 0.034 µM.
With `CC(C)C[C@H](NC(=O)[C@H](CCC(N)=O)NC(=O)[C@H](CCC(N)=O)NC(=O)[C@@H](N)Cc1ccccc1)C(=O)N[C@@H](Cc1ccccc1)C(=O)N[C@@H](CC(C)C)C(=O)N[C@@H](CC(N)=O)C(=O)N[C@H](C(=O)N[C@@H](CC(C)C)C(=O)N[C@@H](CO)C(=O)N[C@@H](Cc1ccccc1)C(=O)N[C@H](C(=O)N[C@@H](CS)C(=O)N1CCC[C@H]1C(=O)N[C@@H](Cc1c[nH]c2ccccc12)C(=O)O)C(C)C)[C@@H](C)O` [compound 105], at DRB1*0802 (DR8w2), the IC50 was determined as 9 µM.
For the compound TLHDIILECV [compound 9], the IC50 at HLA A6802 is 2.95 µM; at HLA A0202 it was 0.00054 µM; at HLA A0206, 0.092 µM; on HLA A0203 it was 0.0019 µM; on HLA A0201 it was 0.0036 µM.
With `CC[C@H](C)[C@H](NC(=O)[C@H](Cc1c[nH]c2ccccc12)NC(=O)[C@H](CCC(=O)O)NC(=O)[C@@H]1CCCN1)C(=O)N[C@@H](CCC(N)=O)C(=O)N[C@@H](CCCNC(=N)N)C(=O)N[C@@H](CCC(N)=O)C(=O)N[C@H](C(=O)N[C@H](C(=O)N[C@@H](CC(C)C)C(=O)N[C@@H](CCC(N)=O)C(=O)N[C@@H](Cc1c[nH]cn1)C(=O)N[C@@H](CO)C(=O)N[C@@H](Cc1ccccc1)C(=O)N[C@@H](CC(N)=O)C(=O)O)C(C)C)[C@@H](C)O` [compound 90], the IC50 against DRB1*0701 (DR7) is > 20 µM.
At DRB1*1101 (DR5), `CC(C)C[C@H](NC(=O)[C@H](CCC(N)=O)NC(=O)[C@H](CCC(N)=O)NC(=O)[C@H](CC(C)C)NC(=O)[C@@H](NC(=O)[C@H](CCCNC(=N)N)NC(=O)[C@@H](N)CC(C)C)[C@@H](C)O)C(=O)N[C@@H](Cc1ccccc1)C(=O)N[C@@H](CC(C)C)C(=O)N[C@@H](CO)C(=O)N[C@H](C(=O)N[C@@H](CC(C)C)C(=O)N[C@@H](CO)C(=O)N[C@@H](Cc1ccccc1)C(=O)N[C@H](C(=O)O)C(C)C)[C@@H](C)O` [compound 121] yielded an IC50 of 1.67 µM.
GTLGIVCPV [compound 11]: the IC50 on HLA A0201 turned out to be 0.02 µM.
With KLTNKGICDL [compound 54], the IC50 at HLA A6802 is > 20 µM; on HLA A0202, 0.44 µM; at HLA A0206, 0.484 µM; at HLA A0203, 0.585 µM.
Turning to `CC[C@H](C)[C@H](NC(=O)[C@H](CC(=O)O)NC(=O)[C@H](CCC(N)=O)NC(=O)[C@H](CC(C)C)NC(=O)[C@@H](N)CO)C(=O)N[C@@H](CCC(=O)O)C(=O)N[C@H](C(=O)N[C@H](C(=O)N[C@@H](CS)C(=O)N[C@H](C(=O)O)C(C)C)[C@@H](C)O)[C@@H](C)CC` [compound 30], the IC50 at HLA A6802 is > 20 µM; at HLA A0203, 0.038 µM; on HLA A0201, 0.153 µM.
On to FVYIPLFLI [compound 8], for which the IC50 at HLA A6802 was found to be 0.251 µM; at HLA A0202, 0.323 µM; at HLA A0203, 0.063 µM; at HLA A0201 it was 0.206 µM.
On to `CC[C@H](C)[C@H](NC(=O)[C@H](Cc1c[nH]cn1)NC(=O)[C@H](C)NC(=O)[C@H](Cc1ccc(O)cc1)NC(=O)[C@H](CC(C)C)NC(=O)[C@@H](NC(=O)[C@H](Cc1ccccc1)NC(=O)[C@@H]1CCCN1C(=O)[C@H](CCC(N)=O)NC(=O)[C@@H](NC(=O)[C@H](CC(C)C)NC(=O)[C@@H](NC(=O)[C@H](CCCCN)NC(=O)[C@@H](N)Cc1ccccc1)[C@@H](C)O)[C@@H](C)CC)[C@@H](C)CC)C(=O)N[C@@H](CCC(N)=O)C(=O)O` [compound 98], for which the IC50 against DRB1*1101 (DR5) worked out at 6.69 µM.
As to FIYIPLFVI [compound 52], the IC50 at HLA A6802 was 0.157 µM; at HLA A0206, 0.0081 µM; on HLA A0203, 0.047 µM; on HLA A0201, 0.026 µM.
Turning to `CC[C@H](C)[C@H](NC(=O)[C@H](Cc1c[nH]cn1)NC(=O)[C@H](C)NC(=O)[C@H](Cc1ccc(O)cc1)NC(=O)[C@H](CC(C)C)NC(=O)[C@@H](NC(=O)[C@H](C)NC(=O)[C@@H]1CCCN1C(=O)[C@H](CCCCN)NC(=O)[C@@H](NC(=O)[C@H](CC(C)C)NC(=O)[C@@H](NC(=O)[C@H](CCCCN)NC(=O)[C@@H](N)Cc1ccccc1)[C@@H](C)O)[C@@H](C)CC)[C@@H](C)O)C(=O)N[C@@H](CCC(N)=O)C(=O)O` [compound 115], on DRB5*0101 (DR2w2beta-2), the IC50 was determined as 1 µM.
The same measure, in the same setting: the same measure for `CC[C@H](C)[C@H](NC(=O)[C@@H](NC(=O)[C@H](CC(C)C)NC(=O)[C@H](CC(=O)O)NC(=O)[C@@H](NC(=O)[C@H](Cc1ccccc1)NC(=O)[C@H](C)NC(=O)[C@H](Cc1ccccc1)NC(=O)[C@H](CC(=O)O)NC(=O)[C@H](CC(C)C)NC(=O)[C@@H](N)C(C)C)[C@@H](C)O)[C@@H](C)O)C(=O)N[C@H](C(=O)N[C@@H](Cc1ccc(O)cc1)C(=O)N[C@@H](CCCNC(=N)N)C(=O)N[C@@H](CC(=O)O)C(=O)O)C(C)C` [compound 111]: > 20 µM.
For FLFTDLTIV [compound 53], the IC50 is 1.9 µM on HLA A6802, 0.0013 µM on HLA A0202, 0.02 µM on HLA A0206 and 0.0035 µM at HLA A0203.
Turning to CLYLHIQSL [compound 6], the IC50 stood at 1.78 µM at HLA A6802, 0.045 µM at HLA A0202 and 0.1 µM on HLA A0206.
The matching figures for ILYAHIQCL [compound 27]: > 20 µM, 0.0085 µM and 0.236 µM.
In the case of KLTNTGLYNV [compound 31], the IC50 was found to be 0.688 µM on HLA A6802, 0.0029 µM on HLA A0202 and 0.083 µM at HLA A0206.
Consider KLLSKLLCV [compound 7], for which the IC50 on HLA A0201 was determined as 0.031 µM.

As a reminder, the IC50 is the concentration that inhibits the measured activity by half. Low values mean greater potency in that assay, high ones weaker potency in that assay.

For the origin of these results see patent publication US8969542B2, “HPV polyepitope constructs and uses thereof” (priority 2007, dated 2015).
